According to patent publication US20170368207A1, “SELF-ASSEMBLED NANOSTRUCTURE AND METHOD FOR PREPARING THE SAME” (National Chiao Tung University, priority 2016, published 2017):

Assay: Relaxivity of contrast agents (Table 4)
Assay type: physicochemical
Excerpt: Relaxivities of a self-assembled nanostructure of the invention, gadodiamide, and carboxymethyl hexanoyl chitosan that physically encapsulates gadodiamide are as shown in Table 4. Hereinafter, the symbol “CHC+Gd” represents that there is only physical mixing between gadodiamide and carboxymethyl hexanoyl chitosan, while the symbol “CHC−Gd” represents that chemical bonding exists between gadodiamide and carboxymethyl hexanoyl chitosan (i.e., the self-assembled nanostructure of the invention).
As a molecule grafted to a paramagnetic metal of a contrast agent is larger, a rotation time between the paramagnetic metal and a solvent molecule becomes longer, so that the relaxivity of the contrast agent is enhanced. The higher the relaxivity of the contrast agent, the better the contrast effect, i.e., the more excellent the contrasting ability. In the self-assembled nanostructure of the invention, gadolinium (paramagnetic metal) has an amphiphilic chitosan (polymer) grafted thereto, and thus has a higher relaxivity than the relaxivities of the single gadodiamide and CHC+Gd. […] In other words, the contrast agent compound of the invention, after being grafted to the amphiphilic chitosan, produces a synergistic effect on the contrasting ability of the contrast agent compound.

## CNC(=O)CN(CCN(CCN(CC(=O)[O-])CC(=O)NC)CC(=O)[O-])CC(=O)[O-].[Gd+3] [Gadodiamide, gadodiamide]
  Relaxivity: 1.8158 mM⁻¹ s⁻¹
